Measured values taken from paper PMC6199744, “Development of Chemical Proteomics for the Folateome and Analysis of the Kinetoplastid Folateome” (ACS Infectious Diseases, 2018).
Where two headings read alike, the source gives them in different places.

What was measured:
Format in all cases: binding
[1] = biological target: T1, HeLa cell extract proteins (Homo sapiens, UniProt P34932)
T1 construct: endogenous in cells; host or cells: HeLa cell extract

[2] = biological target: T2, HeLa cell extract proteins (Homo sapiens, UniProt Q16881)
T2 construct: endogenous in cells; host or cells: HeLa cell extract
T2 sequence (Q16881 1-649): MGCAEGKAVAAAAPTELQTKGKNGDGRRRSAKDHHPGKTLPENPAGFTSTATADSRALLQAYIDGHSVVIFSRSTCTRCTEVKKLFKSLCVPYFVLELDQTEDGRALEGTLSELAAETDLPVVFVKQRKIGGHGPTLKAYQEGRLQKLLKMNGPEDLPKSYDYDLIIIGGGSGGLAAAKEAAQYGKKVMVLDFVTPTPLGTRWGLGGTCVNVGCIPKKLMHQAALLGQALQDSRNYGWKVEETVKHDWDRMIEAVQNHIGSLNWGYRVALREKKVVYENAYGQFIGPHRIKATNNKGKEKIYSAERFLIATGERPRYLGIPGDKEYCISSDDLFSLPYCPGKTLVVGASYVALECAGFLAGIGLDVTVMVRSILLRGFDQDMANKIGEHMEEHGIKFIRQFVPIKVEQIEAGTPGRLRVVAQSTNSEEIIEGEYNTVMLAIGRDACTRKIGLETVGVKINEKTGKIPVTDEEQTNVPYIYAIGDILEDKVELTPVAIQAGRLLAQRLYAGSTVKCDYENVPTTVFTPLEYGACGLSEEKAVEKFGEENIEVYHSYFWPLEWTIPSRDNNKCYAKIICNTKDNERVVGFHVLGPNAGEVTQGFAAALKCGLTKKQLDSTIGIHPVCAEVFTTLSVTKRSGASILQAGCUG

[3] = biological target: T3, HeLa cell extract proteins (Homo sapiens, UniProt P48651)
T3 construct: endogenous in cells; host or cells: HeLa cell extract

[4] = biological target: T4, HeLa cell extract proteins (Homo sapiens, UniProt Q2TB90)
T4 construct: endogenous in cells; host or cells: HeLa cell extract
T4 sequence (Q2TB90 1-917): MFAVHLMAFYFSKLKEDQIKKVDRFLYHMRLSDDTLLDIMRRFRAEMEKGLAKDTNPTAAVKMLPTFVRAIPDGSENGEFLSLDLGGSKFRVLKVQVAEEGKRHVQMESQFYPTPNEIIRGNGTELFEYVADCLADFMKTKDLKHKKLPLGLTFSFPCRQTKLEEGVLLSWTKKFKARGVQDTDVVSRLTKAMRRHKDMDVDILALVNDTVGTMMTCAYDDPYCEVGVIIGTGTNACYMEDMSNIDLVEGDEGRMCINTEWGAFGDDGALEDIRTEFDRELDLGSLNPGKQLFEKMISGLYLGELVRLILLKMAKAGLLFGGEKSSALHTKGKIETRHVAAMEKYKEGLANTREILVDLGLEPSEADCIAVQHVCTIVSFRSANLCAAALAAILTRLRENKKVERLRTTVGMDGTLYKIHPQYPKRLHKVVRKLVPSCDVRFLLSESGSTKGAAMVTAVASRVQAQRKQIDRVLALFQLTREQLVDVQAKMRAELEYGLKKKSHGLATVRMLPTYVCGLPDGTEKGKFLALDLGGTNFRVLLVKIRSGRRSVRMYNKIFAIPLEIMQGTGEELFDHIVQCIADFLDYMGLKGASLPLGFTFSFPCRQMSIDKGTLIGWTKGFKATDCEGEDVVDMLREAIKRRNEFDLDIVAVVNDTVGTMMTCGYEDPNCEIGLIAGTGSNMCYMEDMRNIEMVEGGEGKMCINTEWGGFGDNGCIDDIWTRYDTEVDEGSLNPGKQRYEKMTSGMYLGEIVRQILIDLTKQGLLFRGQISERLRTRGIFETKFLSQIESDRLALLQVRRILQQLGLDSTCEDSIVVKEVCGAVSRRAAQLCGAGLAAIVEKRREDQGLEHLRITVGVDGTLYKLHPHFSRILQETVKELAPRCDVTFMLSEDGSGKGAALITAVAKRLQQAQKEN

[5] = biological target: T5, HeLa cell extract proteins (Homo sapiens, UniProt Q5R3I4)
T5 construct: endogenous in cells; host or cells: HeLa cell extract
T5 sequence (Q5R3I4 whole entry): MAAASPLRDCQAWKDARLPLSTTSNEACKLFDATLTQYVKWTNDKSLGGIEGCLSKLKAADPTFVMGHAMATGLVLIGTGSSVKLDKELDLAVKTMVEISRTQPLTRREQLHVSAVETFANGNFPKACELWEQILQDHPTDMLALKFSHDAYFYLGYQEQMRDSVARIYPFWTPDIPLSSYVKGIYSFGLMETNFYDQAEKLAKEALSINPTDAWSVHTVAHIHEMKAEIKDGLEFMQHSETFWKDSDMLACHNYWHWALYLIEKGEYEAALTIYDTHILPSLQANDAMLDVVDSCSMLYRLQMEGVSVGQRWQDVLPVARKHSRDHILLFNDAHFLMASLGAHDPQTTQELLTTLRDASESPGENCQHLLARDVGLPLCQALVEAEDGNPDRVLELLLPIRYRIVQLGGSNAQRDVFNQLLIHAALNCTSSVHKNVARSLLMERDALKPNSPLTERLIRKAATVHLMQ

[6] = biological target: T6, HeLa cell extract proteins (Homo sapiens, UniProt Q14978)
T6 construct: endogenous in cells; host or cells: HeLa cell extract
T6 sequence (Q14978 1-699): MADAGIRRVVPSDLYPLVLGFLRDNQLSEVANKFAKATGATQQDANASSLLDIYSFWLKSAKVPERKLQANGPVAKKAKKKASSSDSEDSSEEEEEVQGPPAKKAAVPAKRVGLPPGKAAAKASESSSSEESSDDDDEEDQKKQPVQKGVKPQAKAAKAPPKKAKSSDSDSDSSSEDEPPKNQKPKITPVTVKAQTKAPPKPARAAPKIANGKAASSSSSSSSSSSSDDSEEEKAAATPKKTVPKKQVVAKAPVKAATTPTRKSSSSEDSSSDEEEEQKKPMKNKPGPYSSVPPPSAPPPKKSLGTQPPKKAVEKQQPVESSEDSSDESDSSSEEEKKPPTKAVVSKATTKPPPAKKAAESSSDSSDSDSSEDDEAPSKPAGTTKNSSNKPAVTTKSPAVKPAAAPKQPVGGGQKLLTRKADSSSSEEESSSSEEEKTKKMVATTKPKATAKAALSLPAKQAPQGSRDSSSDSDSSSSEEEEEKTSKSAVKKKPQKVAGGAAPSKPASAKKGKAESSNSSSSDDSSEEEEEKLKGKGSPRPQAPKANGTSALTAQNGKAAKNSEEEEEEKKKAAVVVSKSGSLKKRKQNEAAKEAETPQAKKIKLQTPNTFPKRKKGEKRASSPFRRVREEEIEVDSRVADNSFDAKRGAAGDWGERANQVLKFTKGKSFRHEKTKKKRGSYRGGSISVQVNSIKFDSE

[7] = biological target: T7, HeLa cell extract proteins (Homo sapiens, UniProt P00558)
T7 construct: endogenous in cells; host or cells: HeLa cell extract
T7 sequence (P00558 1-417): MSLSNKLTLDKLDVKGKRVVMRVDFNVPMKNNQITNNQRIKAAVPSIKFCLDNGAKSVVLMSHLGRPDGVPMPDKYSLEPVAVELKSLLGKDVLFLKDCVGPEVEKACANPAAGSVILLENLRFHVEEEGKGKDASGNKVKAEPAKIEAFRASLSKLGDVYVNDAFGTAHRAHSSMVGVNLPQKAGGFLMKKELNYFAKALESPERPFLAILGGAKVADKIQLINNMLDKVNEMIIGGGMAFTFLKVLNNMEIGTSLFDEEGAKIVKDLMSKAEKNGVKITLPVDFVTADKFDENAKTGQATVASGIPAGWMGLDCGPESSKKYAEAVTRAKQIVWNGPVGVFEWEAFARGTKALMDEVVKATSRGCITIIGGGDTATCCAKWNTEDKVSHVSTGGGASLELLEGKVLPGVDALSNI

[8] = HeLa, protein TTC38 (HYPOTHETICAL PROTEIN LOC55020)
[9] = HeLa, protein PGK1 (PHOSPHOGLYCERATE KINASE 1.)

T1 sequence (P34932 whole entry): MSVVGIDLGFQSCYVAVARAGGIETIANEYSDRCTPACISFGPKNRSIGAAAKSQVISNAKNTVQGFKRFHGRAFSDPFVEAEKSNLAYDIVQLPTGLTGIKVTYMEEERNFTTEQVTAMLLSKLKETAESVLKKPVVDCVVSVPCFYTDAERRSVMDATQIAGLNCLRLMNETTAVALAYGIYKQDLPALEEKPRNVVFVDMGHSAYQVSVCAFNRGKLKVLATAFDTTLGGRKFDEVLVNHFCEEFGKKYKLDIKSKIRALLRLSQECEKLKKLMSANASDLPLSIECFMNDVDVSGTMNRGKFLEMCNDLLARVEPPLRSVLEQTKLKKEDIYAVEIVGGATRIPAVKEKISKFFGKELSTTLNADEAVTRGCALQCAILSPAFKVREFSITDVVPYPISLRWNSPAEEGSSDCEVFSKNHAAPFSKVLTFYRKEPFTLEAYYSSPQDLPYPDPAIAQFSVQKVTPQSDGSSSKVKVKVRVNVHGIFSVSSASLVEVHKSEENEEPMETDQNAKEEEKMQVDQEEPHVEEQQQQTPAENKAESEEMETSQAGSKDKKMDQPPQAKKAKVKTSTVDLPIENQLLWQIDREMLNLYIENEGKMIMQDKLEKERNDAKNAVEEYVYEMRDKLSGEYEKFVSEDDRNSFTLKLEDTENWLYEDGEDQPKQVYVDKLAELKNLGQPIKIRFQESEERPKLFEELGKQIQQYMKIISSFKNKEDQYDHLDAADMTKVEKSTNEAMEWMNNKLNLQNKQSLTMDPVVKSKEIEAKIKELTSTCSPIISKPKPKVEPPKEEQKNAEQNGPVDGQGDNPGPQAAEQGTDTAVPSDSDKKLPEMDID

| Structure (SMILES) | fold changes relative to vehicle control ([1]; HeLa, protein HSPA4) | fold changes relative to vehicle control ([2]; HeLa, captured protein TXNRD1) | fold changes relative to vehicle control ([3]; HeLa, protein PTDSS1) | fold changes relative to vehicle control ([4]; HeLa, protein HKDC1) | fold changes relative to vehicle control ([6]; protein NOLC1, HeLa) | fold changes relative to vehicle control ([7]; HeLa, protein PGK1) | fold changes relative to vehicle control ([1]; protein HSPA4, HeLa) | fold changes relative to vehicle control ([2]; protein TXNRD1, HeLa) | fold changes relative to vehicle control ([3]; captured protein PTDSS1, HeLa) | fold changes relative to vehicle control ([4]; captured protein HKDC1, HeLa) | fold changes relative to vehicle control ([5]; HeLa, protein TTC38) | further results |
| --- | --- | --- | --- | --- | --- | --- | --- | --- | --- | --- | --- | --- |
| Nc1nc2c(c(=O)[nH]1)N(C=O)C(CNc1ccc(C(=O)N[C@@H](CCC(=O)O)C(=O)O)cc1)CN2 (stereo partly shown) [LEU, leucovorin] | 0.97 | 1.18 | 0.84 | 0.89 | 0.93 | 1.1 |  |  |  |  |  | fold changes relative to vehicle control ([5]; HeLa, protein TTC38 (HY[…] LOC55020)): 1.03 |
| NCCCNc1ccc(C(=O)NC(CCC(=O)O)C(=O)O)cc1 (stereo not shown) [compound 7] | 0.92 | 1.11 | 0.96 | 1.09 | 0.9 | 0.92 |  |  |  |  |  | fold changes relative to vehicle control [5, 8]: 0.99 |
| CCCCCCOc1cccc(Cc2cnc(N)nc2N)c1 [compound 2] |  |  |  |  | 1.44 |  | 2.1 | 1.44 | 1.03 | 1.1 | 0.68 | fold changes relative to vehicle control [7, 9]: 2.59 fold |
| CCCCCCOc1ccc(Cc2cnc(N)nc2N)cc1 [compound 1] |  |  |  |  | 0.9 |  | 1.19 | 1.27 | 0.68 | 1 | 1 | fold changes relative to vehicle control [7, 9]: 1.5 fold |
| Nc1nc2cccc(-c3ccccc3)c2n1Cc1ccc(Cl)c(Cl)c1 [compound 3] |  |  |  |  | 0.96 |  | 0.92 | 1.05 | 0.77 | 1.05 | 1 | fold changes relative to vehicle control ([7]; HeLa, protein PGK1 (PHOSPH[…] 1.)): 0.8 fold |
| NCCOCCOCC(=O)Nc1nc2ncc(CNc3ccc(C(=O)NC(CCC(=O)O)C(=O)O)cc3)nc2c(=O)[nH]1 (stereo not shown) [compound 6] | 1.26 | 1.16 | 0.89 | 1.06 | 0.96 | 1.28 |  |  |  |  |  | fold changes relative to vehicle control [5, 8]: 0.89 |
| Nc1nc2[nH]cc(CCc3ccc(C(=O)N[C@@H](CCC(=O)O)C(=O)O)cc3)c2c(=O)[nH]1 [PTX, pemetrexed] |  |  |  |  |  |  |  |  |  |  |  | fold changes relative to vehicle control [1]: 1.09; fold changes relative to vehicle control [2]: 1.16; fold changes relative to vehicle control [3]: 0.8; fold changes relative to vehicle control [4]: 0.89; fold changes relative to vehicle control [5]: 0.93; fold changes relative to vehicle control [6]: 0.87; fold changes relative to vehicle control [7]: 1.11 |
